Data from US4559362A, “Immunopotentiator” (Zaidan Hojin Biseibutsu Kagaku Kenkyu Kai, priority 1982, dated 1985).

Test system: IMC ascites tumor
Experiment: Concomitant treatment with bleomycin and spermidine on IMC ascites tumor, survival
Assay type: in vivo, CDF1 mice
Experimental: The pharmacological effects of spermidine will be illustrated by reference to the following experimental examples, in which spermidine was administered as its phosphate dissolved in physiological saline.
(c) 1×10^6 IMC cancer cells were transplanted into CDF1 mice by intraperitoneal injection (Day 0). Bleomycin (5 mg/kg) was administered once daily for 5 consecutive days, and spermidine (5 mg/kg) was administered a total of 10 times on alternative days. The effect of concomitant treatment with spermidine and the anticancer drug was evaluated by considering the number of days that the mice survived.

**Q.** With bleomycin [reference compound] as the substance, how does the “Survival rate on Day 60” value (bleomycin (5 mg/kg) alone) read?
**A.** Its value is 0/10.

**Q.** What about the Survival period (bleomycin (5 mg/kg) alone, once daily for 5 consecutive days) of the same substance?
**A.** Its Survival period is 31.2 ± 9.4 days.

**Q.** And the “Increase of life span” value (bleomycin (5 mg/kg) alone, control = 100)?
**A.** The value was 176%.

**Q.** What about the “life span increase compared with the control group” value (bleomycin alone) of the same substance?
**A.** Its value is 76%.
